# Measurements as given in patent US11192877B2, “3-(5-hydroxy-1-oxoisoindolin-2-yl)piperidine-2,6-dione derivatives and uses thereof” (Novartis AG, priority 2018, dated 2021).
# Read-outs that look alike come from different tables or passages of the source.
# Target: IKZF2 (Helios) (Homo sapiens, UniProt Q96SW2+Q9UKS7)
# Assay: Prolabel quantification of IKZF2 protein levels in 293GT cells
# Type: cell-based
# Settings: 24 h, read-out: IKZF2 % protein reduction at 10 μM, 24 h
# [1] = Pro-label assay, 293GT cells, 10 μM
# Sequence of IKZF2 (Helios) (Q9UKS7 whole entry): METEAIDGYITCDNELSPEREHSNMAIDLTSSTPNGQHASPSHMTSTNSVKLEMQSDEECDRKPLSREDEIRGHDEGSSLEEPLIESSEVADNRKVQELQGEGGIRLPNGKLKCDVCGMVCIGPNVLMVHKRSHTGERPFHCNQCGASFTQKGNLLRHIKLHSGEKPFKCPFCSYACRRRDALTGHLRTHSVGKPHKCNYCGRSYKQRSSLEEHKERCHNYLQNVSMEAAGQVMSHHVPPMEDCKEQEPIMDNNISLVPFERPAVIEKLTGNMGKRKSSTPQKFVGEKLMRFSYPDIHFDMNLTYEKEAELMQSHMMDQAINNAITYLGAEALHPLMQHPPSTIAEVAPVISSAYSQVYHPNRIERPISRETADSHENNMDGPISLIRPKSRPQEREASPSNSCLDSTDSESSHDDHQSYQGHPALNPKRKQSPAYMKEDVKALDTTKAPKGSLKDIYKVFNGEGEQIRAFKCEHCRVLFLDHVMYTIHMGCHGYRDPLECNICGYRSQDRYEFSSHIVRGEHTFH
# Sequence of IKZF2 (Helios) (Q96SW2 whole entry): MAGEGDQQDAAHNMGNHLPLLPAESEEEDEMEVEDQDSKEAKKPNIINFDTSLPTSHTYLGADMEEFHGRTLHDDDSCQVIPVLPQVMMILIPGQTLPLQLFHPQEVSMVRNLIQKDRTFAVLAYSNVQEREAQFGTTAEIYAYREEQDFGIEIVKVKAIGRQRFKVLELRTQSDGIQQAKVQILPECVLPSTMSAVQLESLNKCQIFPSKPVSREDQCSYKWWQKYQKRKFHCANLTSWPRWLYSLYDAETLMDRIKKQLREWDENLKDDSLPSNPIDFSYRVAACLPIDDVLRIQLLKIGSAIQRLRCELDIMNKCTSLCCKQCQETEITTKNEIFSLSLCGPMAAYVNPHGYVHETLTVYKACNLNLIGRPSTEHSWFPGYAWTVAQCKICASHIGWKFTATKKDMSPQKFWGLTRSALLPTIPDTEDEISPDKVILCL
# Sequence of IKZF2 (Helios) (Q16531 whole entry partner): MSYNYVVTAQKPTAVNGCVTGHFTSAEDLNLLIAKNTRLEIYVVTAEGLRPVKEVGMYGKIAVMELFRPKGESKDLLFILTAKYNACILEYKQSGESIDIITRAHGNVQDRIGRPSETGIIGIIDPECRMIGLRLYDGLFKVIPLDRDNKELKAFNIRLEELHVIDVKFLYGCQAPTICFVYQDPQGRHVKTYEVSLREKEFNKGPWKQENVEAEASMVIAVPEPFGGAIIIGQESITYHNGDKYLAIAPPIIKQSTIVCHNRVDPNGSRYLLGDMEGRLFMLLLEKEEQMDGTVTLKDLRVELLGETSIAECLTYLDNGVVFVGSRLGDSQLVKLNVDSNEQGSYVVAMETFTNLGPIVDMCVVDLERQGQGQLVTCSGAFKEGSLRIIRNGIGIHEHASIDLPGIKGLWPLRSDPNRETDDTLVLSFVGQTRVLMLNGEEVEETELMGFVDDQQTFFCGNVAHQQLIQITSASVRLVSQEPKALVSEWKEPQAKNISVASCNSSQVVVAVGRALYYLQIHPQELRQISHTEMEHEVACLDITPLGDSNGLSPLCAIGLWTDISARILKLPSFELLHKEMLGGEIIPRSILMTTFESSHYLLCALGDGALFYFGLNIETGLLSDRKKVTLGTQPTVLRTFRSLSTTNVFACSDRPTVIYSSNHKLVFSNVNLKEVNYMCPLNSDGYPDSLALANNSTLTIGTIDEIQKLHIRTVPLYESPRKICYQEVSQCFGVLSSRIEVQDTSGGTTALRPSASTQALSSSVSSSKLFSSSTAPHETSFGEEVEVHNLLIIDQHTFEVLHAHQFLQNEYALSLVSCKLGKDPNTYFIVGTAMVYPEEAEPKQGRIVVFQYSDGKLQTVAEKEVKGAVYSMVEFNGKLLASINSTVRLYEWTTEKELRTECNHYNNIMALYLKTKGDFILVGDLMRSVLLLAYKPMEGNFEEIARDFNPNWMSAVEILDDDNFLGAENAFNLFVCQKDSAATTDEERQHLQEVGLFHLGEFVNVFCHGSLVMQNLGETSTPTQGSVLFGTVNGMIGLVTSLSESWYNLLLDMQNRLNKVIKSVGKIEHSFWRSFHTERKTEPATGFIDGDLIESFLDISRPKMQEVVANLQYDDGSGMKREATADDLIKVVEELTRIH
IKZF2 % protein reduction at 10 µM [1] [%],Structure (SMILES),IKZF2 % protein reduction at 10 µM [%]
84,"O=C1CCC(N2Cc3cc(O[C@H]4CCC[C@@H]4NCC4CCC(F)(F)CC4)ccc3C2=O)C(=O)N1 (stereo partly drawn) [I-173, 3-(5-(((1S,2S)-2-(((4,4-difluorocyclohexyl)methyl)amino)cyclopentyl)oxy)-1-oxoisoindolin-2-yl)piperidine-2,6-dione]",
86,"O=C1CCC(N2Cc3cc(O[C@H]4CCC[C@@H]4NCc4ccc5[nH]ccc5c4)ccc3C2=O)C(=O)N1 (stereo partly drawn) [I-174, 3-(5-(((1S,2S)-2-(((1H-indol-5-yl)methyl)amino)cyclopentyl)oxy)-1-oxoisoindolin-2-yl)piperidine-2,6-dione]",
92,"O=C1CCC(N2Cc3cc(O[C@H]4CCC[C@@H]4N4CC(Oc5ccccc5Cl)C4)ccc3C2=O)C(=O)N1 (stereo partly drawn) [I-177, 3-(5-(((1S,2S)-2-(3-(2-chlorophenoxy)azetidin-1-yl)cyclopentyl)oxy)-1-oxoisoindolin-2-yl)piperidine-2,6-dione]",
92,"COc1ccccc1OC1CN([C@H]2CCC[C@@H]2Oc2ccc3c(c2)CN(C2CCC(=O)NC2=O)C3=O)C1 (stereo partly drawn) [I-178, 3-(5-(((1S,2S)-2-(3-(2-methoxyphenoxy)azetidin-1-yl)cyclopentyl)oxy)-1-oxoisoindolin-2-yl)piperidine-2,6-dione]",
81,"CCN(C[C@H]1C[C@@H](OC)C1)[C@H]1CCC[C@@H]1Oc1ccc2c(c1)CN(C1CCC(=O)NC1=O)C2=O (stereo partly drawn) [I-180, 3-(5-(((1S,2S)-2-(ethyl(((1s,3R)-3-methoxycyclobutyl)methyl)amino)cyclopentyl)oxy)-1-oxoisoindolin-2-yl)piperidine-2,6-dione]",
39,"O=C1CCC(N2Cc3cc(O[C@H]4CCC[C@@H]4N4CCc5ncccc5C4)ccc3C2=O)C(=O)N1 (stereo partly drawn) [I-190, 3-(5-(((1S,2S)-2-(7,8-dihydro-1,6-naphthyridin-6(5H)-yl)cyclopentyl)oxy)-1-oxoisoindolin-2-yl)piperidine-2,6-dione]",

# The next lines start with the molecule.
Structure (SMILES),IKZF2 % protein reduction at 10 µM [1] [%],IKZF2 % protein reduction at 10 µM [%]
"CCN(C[C@H]1CC[C@H](OC)CC1)[C@H]1CCC[C@@H]1Oc1ccc2c(c1)CN(C1CCC(=O)NC1=O)C2=O (stereo partly drawn) [I-170, 3-(5-(((1S,2S)-2-(ethyl(((1r,4S)-4-methoxycyclohexyl)methyl)amino)cyclopentyl)oxy)-1-oxoisoindolin-2-yl)piperidine-2,6-dione]",,67
"CO[C@H]1CC[C@H](CN(C)[C@H]2CCC[C@@H]2Oc2ccc3c(c2)CN(C2CCC(=O)NC2=O)C3=O)CC1 (stereo partly drawn) [I-171, 3-(5-(((1S,2S)-2-((((1R,4S)-4-methoxycyclohexyl)methyl)(methyl)amino)cyclopentyl)oxy)-1-oxoisoindolin-2-yl)piperidine-2,6-dione]",74,
"O=C1CCC(N2Cc3cc(O[C@H]4CCC[C@@H]4N4CCC(OCC5CC5)CC4)ccc3C2=O)C(=O)N1 (stereo partly drawn) [I-186, 3-(5-(((1S,2S)-2-(4-(cyclopropylmethoxy)piperidin-1-yl)cyclopentyl)oxy)-1-oxoisoindolin-2-yl)piperidine-2,6-dione]",,86
"CC(C)OC1CCN([C@H]2CCC[C@@H]2Oc2ccc3c(c2)CN(C2CCC(=O)NC2=O)C3=O)CC1 (stereo partly drawn) [I-187, 3-(5-(((1S,2S)-2-(4-isopropoxypiperidin-1-yl)cyclopentyl)oxy)-1-oxoisoindolin-2-yl)piperidine-2,6-dione]",,79
"O=C1CCC(N2Cc3cc(O[C@H]4CCC[C@@H]4N4C[C@@H]5[C@H](C4)[C@H]4CC[C@@H]5O4)ccc3C2=O)C(=O)N1 (stereo partly drawn) [I-188, 3-(5-(((1S,2S)-2-((3aR,4R,7S,7aS)-octahydro-2H-4,7-epoxyisoindol-2-yl)cyclopentyl)oxy)-1-oxoisoindolin-2-yl)piperidine-2,6-dione]",,70
"CCOC1CCN([C@H]2CCC[C@@H]2Oc2ccc3c(c2)CN(C2CCC(=O)NC2=O)C3=O)CC1 (stereo partly drawn) [I-189, 3-(5-(((1S,2S)-2-(4-ethoxypiperidin-1-yl)cyclopentyl)oxy)-1-oxoisoindolin-2-yl)piperidine-2,6-dione]",,70
